For 25 compounds, IC50 and DC50 results are on record in patent US20240132463A1, “SUBSTITUTED N-(2-(2,6-DIOXOPIPERIDIN-3-YL)-1,3-DIOXOISOINDOLIN-5-YL)ARYLSULFONAMIDE ANALOGS AS MODULATORS OF CEREBLON PROTEIN” (ST. JUDE CHILDREN'S RESEARCH HOSPITAL, INC., priority 2020, published 2024).

As a reminder, the IC50 is the concentration needed to halve the response being measured.

The target of test [1] is 6×His-CRBN-DDB1 protein (Homo sapiens (Human), UniProt Q96SW2). The experiment in a line: CRBN fluorescence polarization assay. It is filed as binding. The following applies: cereblon binding, class symbols; read-out: CRBN FP IC50. As for the experimental part: 6×His-CRBN-DDB1 protein (200 nM) and Cy5-O-Len probe (30 nM) were combined in 20 mM HEPES pH 7, 150 mM NaCl, 0.005% Tween-20 assay buffer. […] The plates were incubated in the dark for 1 hour at room temperature and then read on an Envision plate reader (PerkinElmer, Massachusetts, USA).
6×His-CRBN-DDB1 protein, sequence (Q96SW2 whole entry): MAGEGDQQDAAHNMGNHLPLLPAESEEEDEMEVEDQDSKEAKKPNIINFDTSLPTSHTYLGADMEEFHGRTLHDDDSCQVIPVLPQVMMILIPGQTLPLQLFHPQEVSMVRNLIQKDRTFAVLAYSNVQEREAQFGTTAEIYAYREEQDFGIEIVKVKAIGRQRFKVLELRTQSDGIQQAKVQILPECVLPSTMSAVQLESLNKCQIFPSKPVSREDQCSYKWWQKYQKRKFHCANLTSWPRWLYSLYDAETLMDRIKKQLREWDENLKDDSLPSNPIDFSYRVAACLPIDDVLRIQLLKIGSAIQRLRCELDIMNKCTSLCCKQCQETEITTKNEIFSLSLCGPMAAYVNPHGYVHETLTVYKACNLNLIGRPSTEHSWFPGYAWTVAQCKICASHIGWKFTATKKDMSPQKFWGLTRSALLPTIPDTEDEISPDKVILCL
6×His-CRBN-DDB1 protein, sequence (Q16531 whole entry partner): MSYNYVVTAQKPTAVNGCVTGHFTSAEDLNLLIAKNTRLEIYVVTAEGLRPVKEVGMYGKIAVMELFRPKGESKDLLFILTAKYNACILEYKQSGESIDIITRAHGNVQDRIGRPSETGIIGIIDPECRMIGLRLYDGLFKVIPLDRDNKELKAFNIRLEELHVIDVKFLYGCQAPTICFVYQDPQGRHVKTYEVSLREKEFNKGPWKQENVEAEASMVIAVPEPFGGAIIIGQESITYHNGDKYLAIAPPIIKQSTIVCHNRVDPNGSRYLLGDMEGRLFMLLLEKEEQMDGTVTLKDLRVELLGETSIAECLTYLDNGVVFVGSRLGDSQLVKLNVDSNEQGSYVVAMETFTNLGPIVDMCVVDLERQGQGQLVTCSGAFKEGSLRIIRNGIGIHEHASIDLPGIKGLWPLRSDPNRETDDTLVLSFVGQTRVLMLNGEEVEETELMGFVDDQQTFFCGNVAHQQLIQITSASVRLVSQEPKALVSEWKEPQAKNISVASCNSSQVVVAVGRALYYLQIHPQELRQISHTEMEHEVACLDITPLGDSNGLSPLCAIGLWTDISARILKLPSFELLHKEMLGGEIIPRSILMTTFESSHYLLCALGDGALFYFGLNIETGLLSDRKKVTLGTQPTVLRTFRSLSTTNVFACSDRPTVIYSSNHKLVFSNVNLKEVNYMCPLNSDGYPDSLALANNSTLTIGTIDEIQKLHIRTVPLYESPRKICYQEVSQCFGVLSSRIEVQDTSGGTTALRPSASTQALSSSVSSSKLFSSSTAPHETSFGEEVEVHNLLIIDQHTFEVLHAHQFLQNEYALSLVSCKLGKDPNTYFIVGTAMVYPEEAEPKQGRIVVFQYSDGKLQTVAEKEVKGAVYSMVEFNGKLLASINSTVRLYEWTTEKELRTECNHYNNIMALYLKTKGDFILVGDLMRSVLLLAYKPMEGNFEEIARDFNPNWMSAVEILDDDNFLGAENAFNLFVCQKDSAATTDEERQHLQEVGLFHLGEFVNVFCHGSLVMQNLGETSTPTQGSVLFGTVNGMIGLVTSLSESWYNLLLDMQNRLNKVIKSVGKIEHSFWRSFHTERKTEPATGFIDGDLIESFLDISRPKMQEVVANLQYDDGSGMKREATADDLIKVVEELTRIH

Test [2] deals with GSPT1 HiBiT tag protein (Homo sapiens (Human), UniProt P15170+Q96SW2). The experiment in a line: hGSPT1 HiBiT assay. The following applies: HEK293 hGSPT1 HiBiT cells, 4 hrs incubation; read-out: GSPT1 HiBit EC50. It is filed as cell-based. As for the experimental part: hGSPT1 HiBiT cell line. HEK293_hGSPT1_HiBiT tagged cells were generated using CRISPR-Cas12a technology. Briefly, ˜400,000 HEK293 cells were transiently co-transfecting with precomplexed ribonuclear proteins (RNPs) consisting of […] of crRNA (IDT), 62 pmol of Cas12a protein (IDT), 3 ug of ssODN donor (IDT; AltR™ modifications), 78 pmol of electroporation enhancer (IDT), and 200 ng of pMaxGFP (Lonza). The transfection was performed via nucleofection (Lonza, 4D-Nucleofector™ X-unit) using solution P3 and program CM-130 in a small (20 ul) cuvette according to the manufacturer's recommended protocol. Five days post-nucleofection, cells were single cell sorted for GFP+(transfected) cells by FACs in 96-well plates and clonally selected. Clones were screened and verified for the desired modification via targeted deep sequencing using gene specific primers with partial Illumina adapter overhangs as previously described.^58 In brief, clonal cell pellets were harvested, lysed and used to generate gene specific amplicons with partial Illumina adapters in PCR #1. Amplicons were indexed in PCR #2 and pooled with other targeted amplicons for other loci to create sequence diversity. Additionally, 10% PhiX Sequencing Control V3 (Illumina) was added to the pooled amplicon library prior to running the sample on an Miseq Sequencer System (Illumina) to generate paired 2×250 bp reads. […] Editing construct sequences and screening primers are listed below in Table 4.
GSPT1 HiBiT tag protein, sequence (P15170 whole entry): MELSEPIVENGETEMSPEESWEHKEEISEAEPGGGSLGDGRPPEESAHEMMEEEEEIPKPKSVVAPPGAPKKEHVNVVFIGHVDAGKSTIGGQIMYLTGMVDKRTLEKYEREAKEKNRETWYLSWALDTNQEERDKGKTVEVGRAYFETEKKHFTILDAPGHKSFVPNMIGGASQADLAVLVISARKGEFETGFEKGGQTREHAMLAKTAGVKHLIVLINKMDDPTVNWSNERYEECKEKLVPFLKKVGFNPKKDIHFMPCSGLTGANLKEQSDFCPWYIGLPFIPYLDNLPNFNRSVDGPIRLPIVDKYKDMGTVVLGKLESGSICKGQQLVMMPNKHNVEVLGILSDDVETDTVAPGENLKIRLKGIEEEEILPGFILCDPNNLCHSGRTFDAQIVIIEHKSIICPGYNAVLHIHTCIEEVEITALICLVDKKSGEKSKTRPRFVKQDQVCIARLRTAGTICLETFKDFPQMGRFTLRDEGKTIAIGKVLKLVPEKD
GSPT1 HiBiT tag protein, sequence (Q96SW2 whole entry): as the sequence (Q96SW2 whole entry) above
GSPT1 HiBiT tag protein, sequence (Q16531 whole entry partner): as the sequence (Q16531 whole entry partner) above
hGSPT1 HiBiT assay. […] After 4 hrs incubation, the level of GSPT1 HiBiT tag protein was evaluated using Nano-Glo® HiBiT Lytic Detection System (Promega) according to the manufacturer's instruction.
On the technique in general: With HiBiT, luminescence reflects the tagged protein that the partner subunit can reach.

For `Cc1cc(S(=O)(=O)Nc2ccc3c(c2)C(=O)N(C2CCC(=O)NC2=O)C3=O)c(C)cc1Cl` (stereo not shown) [Compound 77, 4-chloro-N-(2-(2,6-dioxopiperidin-3-yl)-1,3-dioxoisoindolin-5-yl)-2,5-dimethylbenzenesulfonamide], in test [1], the IC50 was less than 1000 nM. For the same compound, the DC50 in test [2] was less than 1000 nM.
For `O=C1CCC(N2C(=O)c3ccc(NS(=O)(=O)c4ccc(Cl)c(C(F)(F)F)c4)cc3C2=O)C(=O)N1` (stereo not shown) [Compound 70, 4-chloro-N-(2-(2,6-dioxopiperidin-3-yl)-1,3-dioxoisoindolin-5-yl)-3-(trifluoromethyl)benzenesulfonamide], the DC50 in test [2] is greater than 10000 nM.
`O=C1CCC(N2C(=O)c3ccc(NS(=O)(=O)c4ccc(O)cc4)cc3C2=O)C(=O)N1` (stereo not shown) [Compound 92, N-(2-(2,6-dioxopiperidin-3-yl)-1,3-dioxoisoindolin-5-yl)-4-hydroxybenzenesulfonamide]: in test [1], the IC50 was 1000 to 10000 nM. For the same compound, in test [2], the DC50 was greater than 10000 nM.
Turning to `O=C1CCC(N2C(=O)c3ccc(NS(=O)(=O)c4cccc(C(F)(F)F)c4)cc3C2=O)C(=O)N1` (stereo not shown) [Compound 4, N-(2-(2,6-dioxopiperidin-3-yl)-1,3-dioxoisoindolin-5-yl)-3-(trifluoromethyl)benzenesulfonamide], in test [1], the IC50 is less than 1000 nM. Moreover, in test [2], the DC50 is greater than 10000 nM.
For `O=C1CCC(N2C(=O)c3ccc(NS(=O)(=O)c4ccc(F)cc4)cc3C2=O)C(=O)N1` (stereo not shown) [Compound 12, N-(2-(2,6-dioxopiperidin-3-yl)-1,3-dioxoisoindolin-5-yl)-4-fluorobenzenesulfonamide], the IC50 in test [1] was less than 1000 nM. The DC50 in test [2] is greater than 10000 nM.
For `O=C1CCC(N2C(=O)c3ccc(NS(=O)(=O)c4ccc(OC(F)(F)F)cc4)cc3C2=O)C(=O)N1` (stereo not shown) [Compound 96], the IC50 in test [1] was less than 1000 nM. For the same compound, the DC50 in test [2] is greater than 10000 nM.
For `O=C1CCC(N2C(=O)c3ccc(NS(=O)(=O)c4ccc(C(F)(F)F)cc4)cc3C2=O)C(=O)N1` (stereo not shown) [Compound 8, N-(2-(2,6-dioxopiperidin-3-yl)-1,3-dioxoisoindolin-5-yl)-4-(trifluoromethyl)benzenesulfonamide], the DC50 in test [2] was greater than 10000 nM.
In the case of `COc1ccccc1S(=O)(=O)Nc1ccc2c(c1)C(=O)N(C1CCC(=O)NC1=O)C2=O` (stereo not shown) [Compound 100, N-(2-(2,6-dioxopiperidin-3-yl)-1,3-dioxoisoindolin-5-yl)-2-methoxybenzenesulfonamide], the IC50 in test [1] was less than 1000 nM. Besides, the DC50 in test [2] is greater than 10000 nM.
For `Cc1ccc(S(=O)(=O)Nc2ccc3c(c2)C(=O)N(C2CCC(=O)NC2=O)C3=O)cc1C` (stereo not shown) [Compound 93, N-(2-(2,6-dioxopiperidin-3-yl)-1,3-dioxoisoindolin-5-yl)-3,4-dimethylbenzenesulfonamide], the IC50 in test [1] was less than 1000 nM.
Turning to `Cc1c(Cl)cccc1S(=O)(=O)Nc1ccc2c(c1)CN(C1CCC(=O)NC1=O)C2=O` (stereo not shown) [Compound 55, 3-chloro-N-(2-(2,6-dioxopiperidin-3-yl)-1-oxoisoindolin-5-yl)-2-methylbenzenesulfonamide], the IC50 in test [1] was less than 1000 nM.
In the case of `O=C1CCC(N2C(=O)c3ccc(NS(=O)(=O)c4ccc(F)cc4F)cc3C2=O)C(=O)N1` (stereo not shown) [Compound 74, N-(2-(2,6-dioxopiperidin-3-yl)-1,3-dioxoisoindolin-5-yl)-2,4-difluorobenzenefylfonamide], the IC50 in test [1] lay in the range of 1000 to 10000 nM.
Turning to `Cc1cc(C)c(S(=O)(=O)Nc2ccc3c(c2)C(=O)N(C2CCC(=O)NC2=O)C3=O)c(C)c1` (stereo not shown) [Compound 68, N-(2-(2,6-dioxopiperidin-3-yl)-1,3-dioxoisoindolin-5-yl)-2,4,6-trimethylbenzenesulfonamide], the IC50 in test [1] is less than 1000 nM.
Take `O=C1CCC(N2C(=O)c3ccc(NS(=O)(=O)c4cc(F)c(Cl)cc4F)cc3C2=O)C(=O)N1` (stereo not shown) [Compound 66, 4-chloro-N-(2-(2,6-dioxopiperidin-3-yl)-1,3-dioxoisoindolin-5-yl)-2,5-difluorobenzenesulfonamide]: in test [1], the IC50 was less than 1000 nM.
For `N#Cc1ccc(S(=O)(=O)Nc2ccc3c(c2)C(=O)N(C2CCC(=O)NC2=O)C3=O)cc1` (stereo not shown) [Compound 64, 4-cyano-N-(2-(2,6-dioxopiperidin-3-yl)-1,3-dioxoisoindolin-5-yl)benzenesulfonamide], the IC50 in test [1] is less than 1000 nM.
Consider `COc1ccc(S(=O)(=O)Nc2ccc3c(c2)C(=O)N(C2CCC(=O)NC2=O)C3=O)cc1` (stereo not shown) [Compound 14, N-(2-(2,6-dioxopiperidin-3-yl)-1,3-dioxoisoindolin-5-yl)-4-methoxybenzenesulfonamide], for which, in test [1], the IC50 was less than 1000 nM.
On to `O=C1CCC(N2Cc3cc(NS(=O)(=O)c4ccccc4C(F)(F)F)ccc3C2=O)C(=O)N1` (stereo not shown) [Compound 44, N-(2-(2,6-dioxopiperidin-3-yl)-1-oxoisoindolin-5-yl)-2-(trifluoromethyl)benzenesulfonamide], for which the IC50 in test [1] was less than 1000 nM.
For the compound `COc1cccc(S(=O)(=O)Nc2ccc3c(c2)C(=O)N(C2CCC(=O)NC2=O)C3)c1` (stereo not shown) [Compound 29, N-(2-(2,6-dioxopiperidin-3-yl)-3-oxoisoindolin-5-yl)-3-methoxybenzenesulfonamide], the 50% inhibitory concentration (IC50) in test [1] is less than 1000 nM.
In the case of `O=C1CCC(N2Cc3ccc(NS(=O)(=O)c4ccccc4OC(F)(F)F)cc3C2=O)C(=O)N1` (stereo not shown) [Compound 37, N-(2-(2,6-dioxopiperidin-3-yl)-3-oxoisoindolin-5-yl)-2-(trifluoromethoxy)benzenesulfonamide], in test [1], the IC50 was less than 1000 nM.
The same measure, in the same setting: the figure for `O=C1CCC(N2Cc3ccc(NS(=O)(=O)c4cccc(OC(F)(F)F)c4)cc3C2=O)C(=O)N1` (stereo not shown) [Compound 27, N-(2-(2,6-dioxopiperidin-3-yl)-3-oxoisoindolin-5-yl)-3-(trifluoromethoxy)benzenesulfonamide] is less than 1000 nM; for `O=C1CCC(N2Cc3ccc(NS(=O)(=O)c4ccc(C(F)(F)F)cc4)cc3C2=O)C(=O)N1` (stereo not shown) [Compound 26, N-(2-(2,6-dioxopiperidin-3-yl)-3-oxoisoindolin-5-yl)-4-(trifluoromethyl)benzenesulfonamide] it is less than 1000 nM; for `O=C1CCC(N2C(=O)c3ccc(NS(=O)(=O)c4cc(Cl)cc(Cl)c4)cc3C2=O)C(=O)N1` (stereo not shown) [Compound 6, 3,5-dichloro-N-(2-(2,6-dioxopiperidin-3-yl)-1,3-dioxoisoindolin-5-yl)benzenesulfonamide] it is less than 1000 nM.
As to `O=C1CCC(N2C(=O)c3ccc(NS(=O)(=O)c4ccc5c(c4)OCCO5)cc3C2=O)C(=O)N1` (stereo not shown) [Compound 59, N-(2-(2,6-dioxopiperidin-3-yl)-1,3-dioxoisoindolin-5-yl)-2,3-dihydrobenzo[b][1,4]dioxine-6-sulfonamide], the IC50 in test [1] is less than 1000 nM.
For the compound `COc1ccc(S(=O)(=O)Nc2ccc3c(c2)C(=O)N(C2CCC(=O)NC2=O)C3)cc1` (stereo not shown) [Compound 24, N-(2-(2,6-dioxopiperidin-3-yl)-3-oxoisoindolin-5-yl)-4-methoxybenzenesulfonamide], the IC50 in test [1] was 1000 to 10000 nM.
Still for that read-out and setting: the figure for `CCOc1ccccc1S(=O)(=O)Nc1ccc2c(c1)C(=O)N(C1CCC(=O)NC1=O)C2=O` (stereo not shown) [Compound 79, N-(2-(2,6-dioxopiperidin-3-yl)-1,3-dioxoisoindolin-5-yl)-2-ethoxybenzenesulfonamide] is 1000 to 10000 nM; for `Cc1cccc(S(=O)(=O)Nc2ccc3c(c2)CN(C2CCC(=O)NC2=O)C3=O)c1` (stereo not shown) [Compound 45, N-(2-(2,6-dioxopiperidin-3-yl)-1-oxoisoindolin-5-yl)-3-methylbenzenesulfonamide] it is less than 1000 nM.
